Source: US11897898B2, “Pyridine macrocycle compounds as ASK1 inhibiting agents” (BIOGEN MA INC., priority 2018, dated 2024)

Test: In vivo brain penetration (rat Kpuu study)
Details: brain and plasma (unbound), IV infusion in the carotid artery for four hours, 1 mg/kg, steady state, Kpuu=Cu,b/Cu,p
Description: To evaluate the CNS penetration of the compounds described herein, several compounds were selected for in vivo rat Kpuu studies. In these experiments the compounds are administered via an IV infusion (using N,N-dimethylacetamide:ethanol:1,2-propylene glycol:water in a 1:1:3:5 ratio as the vehicle) in the carotid artery for a period of four hours (1 mg/kg, 0.1 mg/mL) to reach steady state. After this time the plasma and brain concentration levels are quantified, and the values are adjusted by the measured protein binding in plasma and brain homogenate to calculate the Kpuu (see Di, L.; Kerns, E. H. Blood-Brain Barrier in Drug Discovery (Wiley)) according to the equation below. Kpuu=Cu,b/Cu,p • Wherein: • Cu,b=Unbound concentration in brain (C×fu,b). (C=concentration at steady state; fu,b=fraction unbound in brain) • And in which: Cu,p=Unbound concentration in plasma (C×fu,p). (C=concentration at steady state; fu,p=fraction unbound in plasma)
Plasma and brain protein binding values were generated via the Rapid Equilibrium Dialysis method. The compound of interest was incubated in K2EDTA plasma and brain homogenate (homogenized 1:7 (w:v) in 1×PBS) purchased from BioIVT (Westbury, N.Y.), opposite a buffered compartment of 100 mM Potassium phosphate/150 mM Sodium chloride, pH 7.4, at 1 μM for 4 hr and 6 hr respectively. At the conclusion of incubation samples were taken from both matrix and buffered compartments, matrix-matched using blank buffer and matrix, extracted with acetonitrile, diluted with water, and analyzed utilizing an Agilent RapidFire 365 high-throughput LC coupled with MS/MS detection via an AB Sciex 5500. Free fractions (fu) were then calculated by comparing internal standard/analyte peak-area ratios of matrix and buffered compartments. Cross-species brain protein binding was considered to be equivalent for the purposes of calculating free fraction (see Di, L., et al., (2011a) Species Independence in Brain Tissue Binding Using Brain Homogenates, Drug Metab Dispos 39:1270-1277).
Total drug concentration in plasma and brain tissue was measured via well-established bioanalytical extraction (protein precipitation) and detection methods (LC-MS/MS). Brain tissues were homogenized 1:4 (w:v) with 1×PBS in MP Biomedicals Lysing Matrix D tubes via an MP Biomedicals FastPrep-24™ homogenizer and were then extracted alongside plasma samples by matrix-matching with blank K2EDTA plasma (purchased from BioIVT), followed by protein crash/extraction with acetonitrile, supernatant dry down under nitrogen, and reconstitution with an acidified aqueous/organic mixture before being measured against a calibration curve of the compound of interest prepared in plasma, matrix-matched with blank brain homogenate (generated with brains purchased from BioIVT), and similarly extracted. Reconstituted extracts were then analyzed via LC-MS/MS (AB Sciex 5500) utilizing a binary HPLC setup (Shimadzu LC-20ADvp) and reverse-phase chromatography gradient (ACE 3 C18-AR). Peak area ratios and a 1/x^2 regression fit were used to generate sample concentration values that, combined with plasma and brain protein binding values, were used to generate free drug concentration values and partitioning coefficient (Kpuu).

Kp uu at 4 h	Compound
≥ 0.1	C[C@H]1CCCOc2ncccc2C(=O)Nc2cccc(n2)-c2nncn21 (single isomer, unassigned) [Compound 4]
≥ 0.1	C[C@H]1CCCOc2ncc(C(F)(F)F)cc2C(=O)Nc2cccc(n2)-c2nncn21 (single isomer, unassigned) [Compound 41]
≥ 0.1	C[C@H]1CCCOc2ncc(-c3ccncc3)cc2C(=O)Nc2cccc(n2)-c2nncn21 [Compound 17, (S)-10-Methyl-5^5-(pyridin-4-yl)-1^4H-6-oxa-3-aza-2(2,6),5(3,2)-dipyridina-1(3,4)-triazolacyclodecaphan-4-one]
≥ 0.1	C[C@H]1CCCOc2ncc(Br)cc2C(=O)Nc2cccc(n2)-c2nncn21 (single isomer, unassigned) [Compound 1]
< 0.1	C[C@H]1CCCOc2ncc(C#N)cc2C(=O)Nc2cccc(n2)-c2nncn21 [Compound 38, (S)-10-Methyl-4-oxo-1^4H-6-oxa-3-aza-2(2,6),5(3,2)-dipyridina-1(3,4)-triazolacyclodecaphane-5^5-carbonitrile]
